From publication PMC13538185, “The PSD-95 inhibitor NA-1 is delivered to the brain upon nasal administration with uptake into the olfactory bulb improved by co-administration with the cell-penetrating peptides lowPro and Tat” (Drug Delivery and Translational Research, 2025) come the findings set out here.

Usually tissue uptake stands for the share of the injected amount in each gram of the tissue.

Series [1] deals with primary porcine olfactory epithelial monolayers. Conditions: ALI 20-21 days, apical to basolateral, 0.5 mg/mL in transport medium (MEM, 0.05% BSA), 37 °C, fluorescence read-out, mean (N = 3-4, n = 3).
Procedure: Transport studies were performed on olfactory epithelial cell monolayers cultured for 20 or 21 days under ALI conditions. […] 50 µL samples were withdrawn at time points 0.5, 1, 1.5, 2, 3, 4, and 24 h into black clear-bottom 96-well plates. The sampling volume was immediately replaced with 37 °C transport medium. […] The experiments with NA-1 and the cell-penetrating peptides were initiated by gently applying 300 µL samples (50 µM NA-1 alone or co-administered with 50 µM Tat, LowPro, or PenShuf) in 37 °C transport buffer to the apical compartment. 75 µL samples were withdrawn at time points 1, 2, 3, and 16 h into glass vials. The sampling volume was immediately replaced with 37 °C transport buffer. NA-1 was labelled with selenomethionine (M^Se) between the Tat and the NR2B9c moiety to facilitate analysis through selenium quantification using inductively coupled plasma mass spectrometry (ICP-MS). For selenium analysis, the samples were subjected to flow injection analysis on a Dionex Ultimate 3000 UPLC (Thermo Fischer Scientific, Germering, Germany) with ICP-MS detection using an Agilent 8800 Triple Quad equipped with a 2.5 mm quartz torch with platinum sampler -and skimmer cones (Agilent Technologies, Santa Clara, CA, USA).
Series [2] relates to primary porcine olfactory epithelial cells. Description: Cellular metabolic activity (XTT assay). Type of series: cell-based. To be noted: 4 h incubation with 50 or 100 µM peptide in transport medium, 37 °C, N = 3, n = 3. The protocol:
The cellular metabolic activity was assessed on olfactory epithelial cells cultured in a 96-well plate for 48 h using a commercially available sodium 3´-[1-(phenylaminocarbonyl)-3,4-tetrazolium]-bis (4-methoxy-6-nitro) benzene sulfonic acid hydrate (XTT) assay as directed by the manufacturer. […] Cells incubated with transport medium (MEM w/o phenol red, 0.05% BSA, 0.1 U/mL Penicillin, 0.1 µg/mL Streptomycin) without peptides served as live cell controls and wells with transport medium but no cells served as dead cell controls. After peptide incubation, the cells were gently washed twice with transport medium before incubation with 100 µL transport medium and 50 µL XTT labelling mixture (electron-coupling reagent: XTT labelling reagent 1:50) for 1 h at 37 °C with horizontal shaking (90 rpm). Samples (100 µL) from each well were transferred to a new 96-well plate and the absorbance was measured at 466 nm using a SPECTROstar Nano plate reader (BMG Labtech, Ortenberg, Germany). The relative cellular viability was calculated by Eq. 1:1
(Tetrazolium dyes change colour on reduction, which living cells bring about.)

Series [3] relates to primary porcine olfactory epithelial monolayers. In words: Transport of NA-1 alone or co-administered with cell-penetrating peptides across primary porcine olfactory epithelial monolayers (ICP-MS of selenium). Type of series: in vitro ADME. From the text:
Oxygen was applied as reaction gas.

Series [4] relates to NMRI mice. Conditions: nasal.
Experiment in series [5]: not given
The source holds these as a separate data set.

Experiment in series [6]: not given
This is another data set of the same source.

Series [7] can be described thus: Biodistribution after intravenous bolus injection to mice (reference group). To be noted: mouse, in vivo, iv, 3 nmol/g body weight.
Procedure: (§1) In an intravenous reference group, NA-1 was administered as a bolus injection (3 nmol/g body weight in 0.9% NaCl) into the tail vein. After 60 min compound circulation, the animals were transcardially perfused with 0.01 M PBS (pH 7.4). The brain, olfactory bulb, heart, lungs, spleen, kidneys, liver, and 2–3 cm of the upper part of duodenum were collected in 2 mL tubes and stored at -70 °C until analysis. […] The homogenate was spun down for 10 min at 14,000 rpm and 4 °C in a Sigma 1–15 K centrifuge (DJB Labcare, Newport Pagnell, England). […] Biodistribution of NA-1 was assessed by measuring the selenium content in tissue digested in HNO3 for 3–5 days at room temperature (50 mg tissue per 0.5 mL HNO3 for heart, lungs, spleen, kidney, and duodenum or 0.2 mL HNO3 for olfactory bulb and 1 mL HNO3 for the remaining brain. The tissue samples were spun down for 5 min at 10,000 rpm in a Sigma 1–15 K centrifuge (DJB Labcare, Newport Pagnell, England) before dilution (1:5–1:32) in 5% methanol with 0.1% trifluoroacetic acid in ultrapure water. The samples were analyzed with ICP-MS as described for transport studies, but with a 20 µL injection volume and a 2 min run time.
Series [8] relates to NMRI mice. Described as above. To be noted: mice, 3 nmol/g, 1 h.
Procedure: as §1
Series [9] relates to primary porcine olfactory epithelial monolayers. Description: Transepithelial electrical resistance (TEER) before and after peptide incubation. Type of series: cell-based. To be noted: 100 µM peptide, 3 h incubation, N = 3, n = 2. The text has this: Thereafter, the cells were equilibrated to RT prior measuring the TEER with a chopstick electrode or in an Endohm-24 cup connected to an Epithelial Volt/Ohm meter (both World Precision Instruments, Sarasota, FL, USA). The measured TEER values were subtracted the resistance across an empty Transwell insert and multiplied with the area of the insert (0.33 cm^2) to obtain the standardized unit Ω⋅cm^2.

Where [10] appears, read: NA-1 alone, 3 nmol/g body weight, 1 h after administration, perfused, ICP-MS of selenium, mean (N = 4-6).

Consider `O=C([O-])c1ccccc1-c1c2ccc(=O)cc-2oc2cc([O-])ccc12.[Na+].[Na+]` [sodium fluorescein], for which the “Fraction of applied compound permeated the barrier upon 24 h of incubation” value in series [1] is 29.3%.

In the case of `N=C(N)NCCC[C@H](NC(=O)[C@H](CCCNC(=N)N)NC(=O)[C@H](CCCNC(=N)N)NC(=O)[C@H](CCC(N)=O)NC(=O)[C@H](CCCNC(=N)N)NC(=O)[C@H](CCCNC(=N)N)NC(=O)[C@H](CCCCN)NC(=O)[C@H](CCCCN)NC(=O)[C@H](CCCNC(=N)N)NC(=O)CNC(=O)[C@@H](N)Cc1ccc(O)cc1)C(=O)O` [Tat], the “Cellular metabolic activity relative to cell culture media controls” value in series [2] was “slight decrease”.

As to `CC[C@H](C)[C@H](NC(=O)[C@H](CO)NC(=O)[C@H](CO)NC(=O)[C@H](CC(C)C)NC(=O)[C@H](CCCCN)NC(=O)[C@H](CC[Se]C)NC(=O)[C@@H](CCCNC(=N)N)NC(=O)[C@@H](CCCNC(=N)N)NC(=O)[C@@H](CCCNC(=N)N)NC(=O)[C@@H](CCC(N)=O)NC(=O)[C@@H](CCCNC(=N)N)NC(=O)[C@@H](CCCNC(=N)N)NC(=O)[C@@H](CCCCN)NC(=O)[C@@H](CCCCN)NC(=O)[C@@H](CCCNC(=N)N)NC(=O)CNC(=O)[C@H](N)Cc1ccc(O)cc1)C(=O)N[C@@H](CCC(=O)O)C(=O)N[C@@H](CO)C(=O)N[C@@H](CC(=O)O)C(=O)N[C@H](C(=O)O)C(C)C` [NA-1], the apparent permeability (Papp) of NA-1 co-administered with LowPro (× 10^− 6 cm/sec) amounted to 0.22. Moreover, the “Effect of co-administration with PenShuf on barrier permeation of NA-1 at the 16 h time-point” value in [3] (50 µM NA-1 + 50 µM PenShuf vs NA-1 alone, 16 h, ICP-MS, N = 6, p < 0.0001 one-way ANOVA) is on record as “significantly improved”. The “Fold better permeation potential of NA-1 compared to 4 KDa FITC-dextran” value in series [3] (ratio of Papp values across primary porcine olfactory monolayers) turned out to be 3.2 fold. Besides, the “Rank order of off-target tissue distribution” value in series [4] (3 nmol/g, 1 h, not affected by co-administration with the cell-penetrating peptides) was “kidney > liver > spleen > duodenum > lung > heart”. Further, the “NA-1 accumulation in the olfactory bulb, co-administered with LowPro” value in series [4] (NA-1:LowPro 1:1 molar ratio, 3 nmol/g, 1 h, ICP-MS, mean (N = 4-6)) was determined as 2.98 % administered dose/g. Further, the “NA-1 accumulation in the olfactory bulb, co-administered with PenShuf” value in series [4] (NA-1:PenShuf 1:1 molar ratio, 3 nmol/g, 1 h, ICP-MS, mean (N = 4-6)) stood at 1.63 % administered dose/g. In series [4] (NA-1:Tat 1:1 molar ratio, 3 nmol/g, 1 h, ICP-MS, mean (N = 4-6)), the “NA-1 accumulation in the olfactory bulb, co-administered with Tat” value was determined as 2.13 % administered dose/g. Besides, in [4] (setting [10]), the “NA-1 accumulation in the olfactory bulb” value stood at 1.38 % administered dose/g and the “NA-1 accumulation in the remaining brain” value is given as 0.54 % administered dose/g. In [4] (NA-1 alone, 1 h, p = 0.15 vs intravenous control), the “Combined amount of NA-1 reaching the olfactory bulb and the brain” value was 1.92 % of administered dose/g. Further, in [5], the apparent permeability (Papp) of NA-1 co-administered with PenShuf (× 10^− 6 cm/sec) was 0.8. Moreover, the apparent permeability (Papp) of NA-1 co-administered with Tat (× 10^− 6 cm/sec) in series [6] stood at 0.09. This molecule registered a tissue uptake at 1 h in [7] of 1.57 %ID/g. In addition, in series [8], the “Fold higher amount of NA-1 in duodenum, intravenous vs nasal administration” value came out at 4.5 fold; the “Fold higher amount of NA-1 in kidneys, intravenous vs nasal administration” value came to 9.5 fold; the “Fold higher amount of NA-1 in lungs, intravenous vs nasal administration” value was 2.8 fold; the “Fold higher amount of NA-1 in spleen, intravenous vs nasal administration” value stood at 1.6 fold.

Consider RWFKIQMQIRRWKNKK [PenShuf], for which, in series [9], the “Barrier integrity (TEER before vs after incubation), highest applied concentration” value is “negatively affect the barrier integrity”.
